# Results from patent US12077503B2, “Substituted cyclic amides and their use as herbicides” (FMC CORPORATION, priority 2015, dated 2024).
# Experiments:
# Format in all cases: in vivo
# [1] = system: ryegrass, Italian (Italian ryegrass, Lolium multiflorum); experiment: Test A preemergence; conditions: Lolium multiflorum, pre-emergence, 240 h
# Procedure, shortened: (§1)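 In a loam soil and sand blend, planted seeds got a preemergence directed soil spray, and young plants at the one- to two-leaf stage, 2–10 cm high, got a postemergence application; ~10 d greenhouse hold; injury rated visually, 0 = none, 100 = complete control.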
# [2] = system: ragweed (common ragweed, Ambrosia elatior); experiment: Test A preemergence; conditions: Ambrosia artemisiifolia, pre-emergence, 240 h
# Procedure, shortened: as §1
# [3] = system: barnyardgrass (Echinochloa crus-galli); experiment: Test A preemergence; conditions: Echinochloa crus-galli, pre-emergence, 240 h
# Procedure, shortened: as §1
# [4] = system: pigweed (Amaranthus retroflexus); experiment: Test A preemergence; conditions: Amaranthus retroflexus, pre-emergence, 240 h
# Kochia (Kochia scoparia) [5] = experiment: Test A preemergence; conditions: Bassia scoparia, pre-emergence, 240 h
# Procedure, shortened: as §1
# [6] = system: giant foxtail (Setaria faberii); experiment: Test A preemergence; conditions: Setaria faberi, pre-emergence, 240 h
# Procedure, shortened: as §1
# [7] = system: ryegrass, Italian (Italian ryegrass, Lolium multiflorum); experiment: Test A postemergence; conditions: Lolium multiflorum, post-emergence, 240 h, 125 g ai/ha, postemergence; visual injury on 0 to 100 scale (0 no effect, 100 complete control), approx. 10 d; read-out: Ryegrass, Italian plant response rating
# Procedure, shortened: as §1
# [8] = system: wheat (Triticum aestivum); experiment: Test A postemergence; conditions: Triticum aestivum, post-emergence, 240 h, 125 g ai/ha, postemergence; visual injury on 0 to 100 scale (0 no effect, 100 complete control), approx. 10 d; read-out: Wheat plant response rating
# Procedure, shortened: as §1
# [9] = system: ragweed (common ragweed, Ambrosia elatior); experiment: Test A postemergence; conditions: Ambrosia artemisiifolia, post-emergence, 240 h, 125 g ai/ha, postemergence; visual injury on 0 to 100 scale (0 no effect, 100 complete control), approx. 10 d; read-out: Ragweed plant response rating
# Procedure, shortened: as §1
# [10] = system: Galium (catchweed bedstraw, Galium aparine); experiment: Test A postemergence; conditions: Galium, post-emergence, 240 h, postemergence, approx. 10 d
# Procedure, shortened: as §1
# [11] = system: barnyardgrass (Echinochloa crus-galli); experiment: Test A postemergence; conditions: Echinochloa crus-galli, post-emergence, 240 h, postemergence, approx. 10 d
# Procedure, shortened: as §1
# [12] = system: blackgrass (Alopecurus myosuroides); experiment: Test A postemergence; conditions: Alopecurus myosuroides, post-emergence, 240 h, postemergence, approx. 10 d
# Procedure, shortened: as §1
# Kochia (Kochia scoparia) [13] = experiment: Test A postemergence; conditions: Bassia scoparia, post-emergence, 240 h, postemergence, approx. 10 d
# Procedure, shortened: as §1
# corn (Zea mays) = experiment: Test A postemergence; conditions: Zea mays, post-emergence, 240 h, postemergence, approx. 10 d
# Procedure, shortened: as §1
# [14] = system: giant foxtail (Setaria faberii); experiment: Test A postemergence; conditions: Setaria faberi, post-emergence, 240 h, postemergence, approx. 10 d
# Procedure, shortened: as §1
compound,measurement,setting,value
O=C(Nc1cccc(F)c1F)[C@H]1C(=S)NC[C@@H]1c1ccc(C(F)(F)F)cc1 (racemic) [Compound 1048],pest or weed control at 125 g/ha,"[1]; 125 g ai/ha, Preemergence, visual injury rating after approximately 10 d, read-out: Ryegrass, Italian plant response rating (0 to 100 scale, 0 is no effect, 100 is complete control)",20%
same,pest or weed control at 500 g/ha,"[1]; 500 g ai/ha, preemergence, visual injury rating about 10 d after treatment, 0 to 100 scale (0 no effect, 100 complete control), read-out: Ryegrass, Italian plant response rating",40%
same,pest or weed control at 125 g/ha,"[2]; 125 g ai/ha, Preemergence, visual injury rating after approximately 10 d, read-out: Ragweed plant response rating (0 to 100 scale, 0 is no effect, 100 is complete control)",50%
same,pest or weed control at 500 g/ha,"[2]; 500 g ai/ha, preemergence, visual injury rating about 10 d after treatment, 0 to 100 scale (0 no effect, 100 complete control), read-out: Ragweed plant response rating",80%
same,pest or weed control at 125 g/ha,"[3]; 125 g ai/ha, Preemergence, visual injury rating after approximately 10 d, read-out: Barnyardgrass plant response rating (0 to 100 scale, 0 is no effect, 100 is complete control)",90%
same,pest or weed control at 500 g/ha,"[3]; 500 g ai/ha, preemergence, visual injury rating about 10 d after treatment, 0 to 100 scale (0 no effect, 100 complete control), read-out: Barnyardgrass plant response rating",90%
same,pest or weed control at 125 g/ha,"[4]; 125 g ai/ha, Preemergence, visual injury rating after approximately 10 d, read-out: Pigweed plant response rating (0 to 100 scale, 0 is no effect, 100 is complete control)",80%
same,pest or weed control at 500 g/ha,"[4]; 500 g ai/ha, preemergence, visual injury rating about 10 d after treatment, 0 to 100 scale (0 no effect, 100 complete control), read-out: Pigweed plant response rating",90%
same,pest or weed control at 125 g/ha,"Kochia (Kochia scoparia) [5]; 125 g ai/ha, Preemergence, visual injury rating after approximately 10 d, read-out: Kochia plant response rating (0 to 100 scale, 0 is no effect, 100 is complete control)",90%
same,pest or weed control at 500 g/ha,"Kochia (Kochia scoparia) [5]; 500 g ai/ha, preemergence, visual injury rating about 10 d after treatment, 0 to 100 scale (0 no effect, 100 complete control), read-out: Kochia plant response rating",90%
same,pest or weed control at 125 g/ha,"[6]; 125 g ai/ha, Preemergence, visual injury rating after approximately 10 d, read-out: Foxtail, Giant plant response rating (0 to 100 scale, 0 is no effect, 100 is complete control)",90%
same,pest or weed control at 500 g/ha,"[6]; 500 g ai/ha, preemergence, visual injury rating about 10 d after treatment, 0 to 100 scale (0 no effect, 100 complete control), read-out: Foxtail, Giant plant response rating",90%
same,pest or weed control at 125 g/ha,[7],30%
same,plant injury at 125 g/ha,[8],20%
same,pest or weed control at 125 g/ha,[9],0%
same,pest or weed control at 125 g/ha,"[10]; 125 g ai/ha, visual injury on 0 to 100 scale (0 no effect, 100 complete control), read-out: Galium plant response rating",0%
same,pest or weed control at 500 g/ha,"[10]; 500 g ai/ha, visual injury, 0 to 100 scale (0 no effect, 100 complete control), read-out: Plant response rating, Galium",60%
same,pest or weed control at 125 g/ha,"[11]; 125 g ai/ha, visual injury on 0 to 100 scale (0 no effect, 100 complete control), read-out: Barnyardgrass plant response rating",50%
same,pest or weed control at 500 g/ha,"[11]; 500 g ai/ha, visual injury, 0 to 100 scale (0 no effect, 100 complete control), read-out: Plant response rating, Barnyardgrass",80%
same,pest or weed control at 125 g/ha,"[12]; 125 g ai/ha, visual injury on 0 to 100 scale (0 no effect, 100 complete control), read-out: Blackgrass plant response rating",20%
same,pest or weed control at 500 g/ha,"[12]; 500 g ai/ha, visual injury, 0 to 100 scale (0 no effect, 100 complete control), read-out: Plant response rating, Blackgrass",30%
same,pest or weed control at 125 g/ha,"Kochia (Kochia scoparia) [13]; 125 g ai/ha, visual injury on 0 to 100 scale (0 no effect, 100 complete control), read-out: Kochia plant response rating",30%
same,pest or weed control at 500 g/ha,"Kochia (Kochia scoparia) [13]; 500 g ai/ha, visual injury, 0 to 100 scale (0 no effect, 100 complete control), read-out: Plant response rating, Kochia",60%
same,plant injury at 125 g/ha,"corn (Zea mays); 125 g ai/ha, visual injury on 0 to 100 scale (0 no effect, 100 complete control), read-out: Corn plant response rating",20%
same,"Corn plant response rating (crop injury, 0 = no effect, 100 = complete kill) at 500 g/ha","corn (Zea mays); 500 g ai/ha, visual injury, 0 to 100 scale (0 no effect, 100 complete control)",40%
same,pest or weed control at 125 g/ha,"[14]; 125 g ai/ha, visual injury on 0 to 100 scale (0 no effect, 100 complete control), read-out: Foxtail, Giant plant response rating",60%
same,pest or weed control at 500 g/ha,"[14]; 500 g ai/ha, visual injury, 0 to 100 scale (0 no effect, 100 complete control), read-out: Plant response rating, Foxtail, Giant",80%
